Laboratory results from patent publication US7989188B2, “Conjugates for cancer therapy and diagnosis” (BioSight Ltd., priority 2004, dated 2011).

Experiments:
[1] = system: MX-1 human mammary duct carcinoma; experiment: Anti-tumor activity, MX-1 xenograft murine model, intravenous treatment; assay type: in vivo, BALB/c nude mice; conditions: for increase in tumor volume at the end of the study period: injected Days 10, 14 and 18, Asp(5-FU) 50 and 100 mg/kg, 5-FU 26 mg/kg, saline 170%
Procedure: The potential anti-tumor activity of Asp(5-FU) was assessed based on the relative growth inhibition of human mammary duct carcinoma, MX-1 murine model.
Propagation of Tumor Material (MX-1 fragments): The Mammary Xenograft-1 (MX-1) is a human derived mammary duct carcinoma, supplied by the National Cancer Institute (NCI). The tissue was kept frozen until the time of implantation. The fragments (one to each animal in the study) were prepared according to the NCI recommended transplantation protocol.
Each vial containing 5 to 6 fragments was rapidly thawed (60-90 seconds) in a water bath at 37-40° C. The frozen fragments were implanted immediately after thawing.
Two fragments were implanted close to each other at the same sub-axillary incision site of each animal assigned to the propagation phase. The mass doubling time of the MX-1 tumor during the logarithmic phase was 4-5 days post implantation. Subsequently, another 2 fragments were implanted into each of 6 animals to achieve at least a total of 20 implanted fragments.
At the end of the logarithmic phase, the donor animals were sacrificed, the tumors were excised, dissected and transferred to a sterile Petri dish placed over ice and cut into approximately 20 fragments (about 2×2×2 mm each) for their transplantation into 10 naïve mice. A total of 42 tumor fragments were transplanted at the end of the second propagation phase. No more than 30 minutes elapsed from the time the tumor was removed from the donor animals until transplantation.
Tumor Induction and Monitoring (Pre-Treatment): Upon completion of the propagation phase, tumor fragments measuring about 2×2×2 mm each, were implanted subcutaneously (SC) into the right flank of each test animal assigned to the main study. Tumor growth was monitored twice weekly and the total SC mass (mm^3) determined on the basis of width and length measurement using micrometer calipers. […]
Tumor volume changes were determined using the following equation: V (mm^3)=d^2 (mm^2)×D (mm)/2 wherein d and D represent the smallest and the largest perpendicular tumor diameters respectively. […]
Body Weight: Individual body weights were determined prior to MX-1 fragment transplantation and thereafter once weekly until initiation of treatment. Following initiation of treatment individual body weights were determined twice weekly until the scheduled study termination or in case of removal of animals from the study due to animal welfare reasons, at the time of death.
Necropsy Procedures and Macroscopic Examination: Necropsy was performed on all animals including those removed from the study for animal welfare reasons and all surviving 10 days after the last dosing session (Groups 1, 2 & 3), following euthanasia. […] All gross pathological changes were recorded. […]

mice [2] = conditions: NIH report; cited from earlier work
[3] = In-vitro toxicity profile, MTT cell viability; assay type: cell-based; conditions: human, HUVEC (human umbilical vein endothelial cells, normal), healthy cells (HUVEC), at the concentration of 5-FU that resulted in 90% mortality (IC90), FIG. 2
Procedure: (§1) Materials and Methods: Human umbilical vein endothelial cells (HUVEC, normal) cells were grown in M199 medium supplemented with 20% fetal calf serum (FCS), vitamins, 1 ng/ml hbFGF, and antibiotics at […], 5% CO2. Human melanoma cells (WW-94, cancer) cells were grown in 50% DMEM/50% F-12 medium supplemented with 10% fetal calf serum and antibiotics.
(§2) The cells were seeded in a 96-well ELISA dish at a concentration of 10,000-20,000 cells/well. The conjugates were added at concentrations that cause IC50 (50% lethality, FIG. 1), or IC90 (90% lethality, FIG. 2) by 5-FU. The cells were incubated for 72 hours at 37° C. and 5% CO2. After 72 hours the medium was aspirated, and DMEM containing 5% FCS and 0.5 mg/ml MTT (3-(4,5-Dimethyl-2-thiazolyl)-2,5-diphenyl-2H-tetrazolium bromide, an indicator of cell viability) was added. The cells were incubated for 2-4 hours at 37° C. and 5% CO2, washed with phosphate buffer saline (PBS) and dissolved in dimethylsulfoxide (DMSO). The results were analyzed using Techan ELISA reader equipped with a 570 nm filter. The results are represented as % of cell mortality.

[4] = system: Human umbilical vein endothelial cells (HUVEC, normal); experiment: In-vitro toxicity profile, MTT cell viability; assay type: cell-based; conditions: normal cells (HUVEC), 72 hours, at the concentration of 5-FU that causes 50% mortality (IC50), FIG. 1
Procedure: as §1, §2

[5] = Acute intravenous (IV) toxicity, single injection, MTD and LD50; conditions: female, BALB/c, mouse, in vivo, iv
Procedure: (§3) Purpose: To measure the potential acute intravenous (IV) toxicity of Asp(5-FU) in mice, estimated by Maximum Tolerated Dose (MTD) and 50% Lethal Dose (LD50).
(§4) Method: The potential acute intravenous (IV) toxicity of the Asp(5-FU) was assessed in groups of BALB/c female mice of 5 mice per group, in order to establish appropriate MTD levels towards a projected series of various anti-tumorigenic efficacy trials.
(§5) Asp(5-FU) was administered as single IV injections at three dose levels of 80, 150 and 200 mg/kg. One group was administered with saline served as control. In all instances, freshly prepared solutions were injected at a constant volume of 10 ml/kg.

BALB/c female mice = experiment: as above
Procedure: as §3, §4, §5

[6] = Acute toxicity (MTD), single administration by oral gavage; conditions: mouse, in vivo, po
Procedure: (§6) OBJECTIVE: To determine the Maximum Tolerated Dose (MTD) of the test product, Asp(5-FU), following a single administration by oral gavage (PO) to mice.
(§7) This experiment was performed essentially according to Example 22 supra, with the exception that the test agent and the controls were administered orally, by oral gavage. Asp(5-FU) was suspended in corn oil and administered by single oral gavage (PO), at 2 dose levels of 200 and 400 mg/kg, to 2 test groups. An additional equally sized group was administered the vehicle (corn oil) and served as control. In all instances the volume dosage was 10 ml/kg.

mice [7] = experiment: as above; conditions: single PO 200 and 400 mg/kg
Procedure: as §6, §7

[8] = system: human mammary duct carcinoma xenograft MX-1; experiment: Anti-tumor activity, MX-1 xenograft murine model, oral gavage; assay type: in vivo, mice; conditions: PO gavage 200 mg/kg, seven administrations at 3-days inter-dosing intervals
Procedure: The compounds were administered to mice following about 3-6 hours food deprivation prior to dosing, using a suitable stainless steel feeding needle. Following dosing, food was withheld for further 1-2 hours.
Dose and Volume Dosage: 50 mg/kg reference item and 200 mg/kg of Asp(5-FU). In all instances, volume dosage was 10 ml/kg.
Frequency and Duration: Treatment with Control, Test or Reference Items was carried out as 1× daily injection at 3-days inter-dosing intervals×7 (days 1-25).

Row | SMILES | increase in tumor volume at the end of the study period [1] | LD50 (mice [2]) | MTD (mice [2]) | mortality at 72 h [3] | % of cell mortality [4] | LD50 [5] | MTD [5] | less toxic than 5-FU (BALB/c female mice; female, BALB/c, mouse, in vivo) | gross pathological findings at scheduled necropsy (BALB/c female mice; single IV 80, 150 and 200 mg/kg) | Incidence of mortality (BALB/c female mice; single IV injection, high-dose group 200 mg/kg, immediate post-dosing period) | clinical signs (BALB/c female mice; single IV, high-dose 200 mg/kg, survivors or decedents respectively) | clinical signs (BALB/c female mice; single IV, intermediate- and low-dose 150 & 80 mg/kg) | Mean group body weight (BALB/c female mice; single IV, intermediate-dose group, Day 8, p<0.01, full recovery Day 8-15) | tumor progression compared to controls ([1]; Asp(5-FU) 50 and 100 mg/kg, tumor volume, FIG. 5) | tumor weight upon necropsy compared to 5-FU and saline control ([1]; end of treatment period, FIG. 6) | MTD at 14 days [6] | gross pathological findings at scheduled necropsy (mice [7]) | clinical signs in reaction to dosing (mice [7]; 14-day observation period) | progressive tumor development compared to corn oil controls [8]
1 | O=c1[nH]cc(F)c(=O)[nH]1 [Compound 5-FU, 2,4-dioxo-5-fluoropyrimidine] | 185% | 81 mg/kg | 24 to 26 mg/kg | – | – | – | – | – | – | – | – | – | – | – | – | – | – | – | –
2 | NC(CC(=O)n1cc(F)c(=O)[nH]c1=O)C(=O)O [Asp(5-FU), L-aspartic acid-beta-1N-(2,4-dioxo-5-fluoropyrimidine)] | 104% | – | – | 20% | did not kill normal cells | 200 mg/kg | 160 mg/kg | 600% | No gross pathological findings | 3/5 | brief decreased motor activity or lateral recumbency | No obvious clinical signs | transient reduced body weight | significant reduction in tumor progression | significant decrease | > 400 mg/kg | No gross pathological findings | No noticeable clinical signs | relative decrease in progressive tumor development
